Results taken from US9260439B2, “Dihydropyrrolopyrimidine derivatives” (PFIZER INC., priority 2014, dated 2016).
Structures can show the parent of a compound that is named as a salt.

Molecular target: truncated PI3Kα (p110α/iSH2 p85α) (Homo sapiens (Human), UniProt P42336)
Assay: PI3KA_Act fluorescence polarization kinase assay (Ki)
Assay type: biochemical
Conditions: 1 mM ATP
Excerpt: 2) p110α-iSH2 p85α Complex (Full Length p110α and p85α iSH2)(“PI3KA_Act”)
Genes encoding for full length p110α and p85α nSH-iSH2=niSH2 (p85a aminoacids 322-600) subunits of PI3Kα complex were subcloned from existing constructs into pFASTBAC Dual vector (Life Technologies, Carlsbad, Calif.) using standard cloning procedures. Gene encoding p110α subunit was subcloned into polyhedrine promoter while gene encoding p85α niSH2 domains was subcloned into p10 promoter. Additionally, Human Rhinovirus 3C Protease (“HRV 3C”) site was introduced between nSH2 and iSH2, replacing aminoacids 431-438 of p85α with […] HRV 3C recognition sequence, using standard QuickChange mutagenesis protocol (Agilent Technologies, CA). Recombinant baculovirus was generated using Bac-to-Bac protocol (Life Technologies, Carlsbad, Calif.). Large scale expression was conducted in Sf21 (Life Technologies, Carlsbad, Calif.) cells at a multiplicity of infection (“MOI”)=1 for 48 hours. Cells were lyzed in 50 mM Tris pH 8.0, 250 mM NaCl, 5% glycerol, 0.25 mM TCEP, and 20 mM imidazole. The p110α-niSH2 p85α complex was purified from clarified supernatant using Immobilized Metalo Affinity Chromatography (“IMAC”). The protein was eluted from the column using 50 mM Tris pH 8.0, 200 mM NaCl, 0.25 mM TCEP, and 200 mM imidazole. Following elution p110α-niSH2 p85α complex was dialyzed against 4 liters of 50 mM Tris pH 8.0, 200 mM NaCl, 0.25 mM TCEP, and 40 mM imidazole in the presence of PreScission Protease (1:70 molar ratio of Protease to Protein) and TEV protease (1:40 molar ratio protease to protein) for 16 hours at 4° C. The protein was further purified using reverse IMAC to remove cleaved histidine tag and contaminants captured during initial IMAC purification. The mixture of p110α-iSH2 p85α complex and cleaved nSH2 was recovered in reverse IMAC 40 mM imidazole flow through and 60 mM imidazole wash fractions. Those fractions were pulled together and loaded on Superdex 200 26/60 SEC column equilibrated in 25 mM Tris, pH 8.0, 100 mM NaCl, 2% glycerol, and 2 mM TCEP. Following SEC, chromatography peak fractions containing p110α-iSH2 p85α complex were pulled and concentrated to 4.3 mg/mL. Purity and integrity of the complex was confirmed using LCMS, analytical SEC and SDS-PAGE (sodium dodecyl sulfate polyacrylamide gel electrophoresis) analysis.
The biochemical assays of kinase activity of full-length PI3Kα (full-length p110α/p85a) or truncated PI3Kα (p110α/iSH2 p85a) were conducted using a fluorescence polarization format similar to the procedure of Yuan J., et al., (2011) “PF-04691502, a Potent and Selective Oral Inhibitor of PI3K and mTOR Kinases with Antitumor Activity”, Mol Cancer Ther. 10, 2189-2199. The enzymatic reactions were conducted in 50 μL volumes in 96-well plates. The reactions contained human recombinant PI3Kα (2 nM full-length p110α/p85α or 0.5 nM p110α/iSH2 p85) and 30 μM phosphatidylinositol 4,5-bisphosphate (“PIP2”) (Cayman Chemical Company, Ann Arbor, Mich.) and were sonicated for 1 minute prior to adding PI3Kα enzyme (PI3KA_Act or PI3KA_FL), DMSO or test compound (12-point 3-fold serial dilution, 3 μM top dose, 2° A) DMSO final concentration), 5 mM MgCl2, 50 mM HEPES pH 7.4, 150 mM NaCl, 1 mM DTT ((2S,3S)-1,4-bis(sulfanyl)butane-2,3-diol), and 0.05% 3-[(3-cholamidopropyl)dimethylammonio]-1-propanesulfonate (“CHAPS”). […] The reactions were incubated for 30 min at room temperature, stopped with EDTA pH 8 (10 mM final concentration). In a detection plate, 15 μL of detector/probe mixture, containing 480 nM GST-Grp1 PH domain protein (University of Dundee, Dundee, UK) and 12 nM carboxytetramethylrhodamine (“TAMRA”)-tagged fluorescent phosphatidylinositol (3,4,5)-triphosphate (“PIP3”) (Echelon Biosciences, Inc., Salt Lake City, Utah) in assay buffer, was mixed with 15 μL of kinase reaction mixture. The plate was shaken for 30 minutes and fluorescence polarization values were measured on an LJL Analyst HT plate reader (Molecular Devices, Sunnyvale, Calif.). […]

truncated PI3Kα (p110α/iSH2 p85α), sequence (P42336 whole entry, the tested form may be a part): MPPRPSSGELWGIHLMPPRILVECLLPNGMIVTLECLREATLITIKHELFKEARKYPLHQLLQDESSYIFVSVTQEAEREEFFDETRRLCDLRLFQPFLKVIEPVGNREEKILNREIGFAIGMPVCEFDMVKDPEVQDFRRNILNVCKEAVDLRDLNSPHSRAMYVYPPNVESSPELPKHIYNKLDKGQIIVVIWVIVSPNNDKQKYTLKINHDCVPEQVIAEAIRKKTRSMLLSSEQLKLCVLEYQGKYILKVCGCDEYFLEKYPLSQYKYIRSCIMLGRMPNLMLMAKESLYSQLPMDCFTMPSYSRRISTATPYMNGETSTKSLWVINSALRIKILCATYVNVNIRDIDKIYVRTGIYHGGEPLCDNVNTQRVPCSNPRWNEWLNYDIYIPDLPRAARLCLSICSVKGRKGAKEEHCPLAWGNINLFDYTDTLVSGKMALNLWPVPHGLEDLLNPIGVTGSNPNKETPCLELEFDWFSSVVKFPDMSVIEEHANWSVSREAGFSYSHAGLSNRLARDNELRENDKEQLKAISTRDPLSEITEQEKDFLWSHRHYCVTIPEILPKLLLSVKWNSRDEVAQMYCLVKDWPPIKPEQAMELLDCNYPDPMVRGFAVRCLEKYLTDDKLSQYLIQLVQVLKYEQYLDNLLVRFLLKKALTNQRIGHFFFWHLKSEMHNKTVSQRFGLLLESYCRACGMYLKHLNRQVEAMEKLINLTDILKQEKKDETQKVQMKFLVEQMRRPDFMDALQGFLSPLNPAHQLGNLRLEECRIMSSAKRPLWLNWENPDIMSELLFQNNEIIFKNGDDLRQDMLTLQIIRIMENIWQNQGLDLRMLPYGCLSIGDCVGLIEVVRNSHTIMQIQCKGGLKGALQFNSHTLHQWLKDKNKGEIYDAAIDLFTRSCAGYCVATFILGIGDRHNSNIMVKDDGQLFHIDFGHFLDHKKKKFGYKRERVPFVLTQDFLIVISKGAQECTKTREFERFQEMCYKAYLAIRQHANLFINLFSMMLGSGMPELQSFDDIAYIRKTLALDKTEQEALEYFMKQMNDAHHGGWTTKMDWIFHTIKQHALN

| Compound | Ki | PI3KA_Act Ki |
| --- | --- | --- |
| C[C@]1(N2CCc3c(-c4cnc(N)nc4)nc(N4CCOCC4)nc32)CCN(C2CCNC2=O)C1 (stereo partly drawn) [Example 6, (3S)-3-[4-(2-aminopyrimidin-5-yl)-2-(morpholin-4-yl)-5,6-dihydro-7H-pyrrolo[2,3-d]pyrimidin-7-yl]-3-methyl-1,3′-bipyrrolidin-2′-one] | 0.096 nM |  |
| CC1(C)CN=C(N2CC[C@](C)(N3CCc4c(-c5cnc(N)nc5)nc(N5CCOCC5)nc43)C2)O1 [Example 8, 5-{7-[(3S)-1-(5,5-dimethyl-4,5-dihydro-1,3-oxazol-2-yl)-3-methylpyrrolidin-3-yl]-2-(morpholin-4-yl)-6,7-dihydro-5H-pyrrolo[2,3-d]pyrimidin-4-yl}pyrimidin-2-amine] |  | 0.019 nM |
| CC1(C)COC(N2CC[C@](C)(N3CCc4c(-c5cnc(N)nc5)nc(N5CCOCC5)nc43)C2)=N1 [Example 9, 5-{7-[(3S)-1-(4,4-dimethyl-4,5-dihydro-1,3-oxazol-2-yl)-3-methylpyrrolidin-3-yl]-2-(morpholin-4-yl)-6,7-dihydro-5H-pyrrolo[2,3-d]pyrimidin-4-yl}pyrimidin-2-amine] |  | <0.018 nM |
| [2H]C1([2H])OC([2H])([2H])C([2H])([2H])N(c2nc(-c3cnc(N)nc3)c3c(n2)N([C@@]2(C)CCN(C(=O)C(C)(C)N)C2)CC3)C1([2H])[2H] [Example 10, (S)-2-amino-1-(3-(4-(2-aminopyrimidin-5-yl)-2-morpholino-d8)-5,6-dihydro-7H-pyrrolo[2,3-d]pyrimidin-7-yl)-3-methylpyrrolidin-1-yl)-2-methylpropan-1-one hydrochloride] | < 0.018 nM |  |
| C[C@H]1COCCN1c1nc(-c2cnc(N)nc2)c2c(n1)N([C@H]1CCN(C(=O)NC(C)(C)C)C1)CC2 [Example 140] |  | 0.318 nM |
| C[C@H]1COCCN1c1nc(-c2cnc(N)nc2)c2c(n1)N(C1CN(C(=O)OC(C)(C)C)C1)CC2 [Example 141] |  | 0.471 nM |
| CNC(=O)COC(=O)N1CC(N2CCc3c(-c4cnc(N)nc4)nc(N4CCOCC4)nc32)C1 [Example 142] |  | 0.159 nM |
| CNC(=O)COC(=O)N1CC(N2CCc3c(-c4cnc(N)nc4)nc(N4CCOC[C@@H]4C)nc32)C1 [Example 143] |  | 0.262 nM |
| CNS(=O)(=O)N1CC[C@H](N2CCc3c(-c4cnc(N)nc4)nc(N4CCOC[C@H]4C)nc32)C1 [Example 144] |  | 3.251 nM |
| C[C@@H]1COCCN1c1nc(-c2cnc(N)nc2)c2c(n1)N([C@H]1CCN(S(C)(=O)=O)C1)CC2 [Example 145] |  | 4.011 nM |
| CNS(=O)(=O)N1CC(N2CCc3c(-c4cnc(N)nc4)nc(N4CCOCC4)nc32)C1 [Example 147] |  | 0.064 nM |
| CNS(=O)(=O)NCCOC(=O)N1CC(N2CCc3c(-c4cnc(N)nc4)nc(N4CCOCC4)nc32)C1 [Example 148] |  | 0.094 nM |
| C[C@]1(N2CCc3c(-c4cnc(N)nc4)nc(N4CCOCC4)nc32)CCN(S(C)(=O)=O)C1 [Example 149] |  | 0.027 nM |
| C[C@@]1(N2CCc3c(-c4cnc(N)nc4)nc(N4CCOCC4)nc32)CCN(S(C)(=O)=O)C1 [Example 150] |  | 0.044 nM |
| CN(C)C(=O)COC(=O)N1CC(N2CCc3c(-c4cnc(N)nc4)nc(N4CCOCC4)nc32)C1 [Example 151] |  | 0.107 nM |
| C[C@H]1COCCN1c1nc(-c2cnc(N)nc2)c2c(n1)N(C1CN(C(=O)OCC(=O)N(C)C)C1)CC2 [Example 152] |  | 0.103 nM |
| COCCCS(=O)(=O)N1CC(N2CCc3c(-c4cnc(N)nc4)nc(N4CCOC[C@@H]4C)nc32)C1 [Example 153] |  | 0.105 nM |
| C[C@H]1COCCN1c1nc(-c2cnc(N)nc2)c2c(n1)N(C1CN(S(=O)(=O)c3cn(C)cn3)C1)CC2 [Example 154] |  | 0.286 nM |
| COCCS(=O)(=O)N1CC(N2CCc3c(-c4cnc(N)nc4)nc(N4CCOC[C@@H]4C)nc32)C1 [Example 155] |  | 0.116 nM |
| C[C@H]1COCCN1c1nc(-c2cnc(N)nc2)c2c(n1)N([C@H]1CCN(C(=O)OC3COC3)C1)CC2 [Example 156] |  | 0.088 nM |
